Experimental data from patent US7410970B2, “Substituted 1,4,-di-piperidin-4-yl-piperazine derivatives and their use as neurokinin antagonists” (Janssen Pharmaceutica, N.V., priority 2002, dated 2008).

Columns and labels:
h-NK2 receptor = target: T1, h-NK2 receptor (Homo sapiens, UniProt P21452); experiment: Binding experiment for h-NK2 receptor: displacement of [3H]-SR-48968, Sf9 cells; conditions: cloned human h-NK2 receptors expressed in Sf9 cells, read-out: h-NK2 pIC50 (converted)
T1 construct: expressed in transfected cells; host or cells: Sf9 cells
T1 sequence (P21452 1-398): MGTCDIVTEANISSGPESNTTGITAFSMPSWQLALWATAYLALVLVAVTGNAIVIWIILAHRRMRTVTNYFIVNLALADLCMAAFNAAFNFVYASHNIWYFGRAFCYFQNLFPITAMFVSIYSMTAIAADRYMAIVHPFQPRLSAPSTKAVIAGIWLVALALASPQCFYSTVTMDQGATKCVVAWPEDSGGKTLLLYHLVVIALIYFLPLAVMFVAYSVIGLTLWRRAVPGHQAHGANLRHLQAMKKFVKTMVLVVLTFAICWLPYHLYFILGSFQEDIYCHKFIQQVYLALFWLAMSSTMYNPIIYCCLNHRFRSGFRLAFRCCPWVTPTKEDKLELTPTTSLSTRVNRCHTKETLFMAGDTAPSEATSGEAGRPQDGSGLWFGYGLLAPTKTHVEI
Experimental: (§1) The compounds according to the invention were investigated for interaction with various neurotransmitter receptors, ion channels and transporter binding sites using the radioligand binding technique. Membranes from tissue homogenates or from cells, expressing the receptor or transporter of interests, were incubated with a radioactively labelled substance ([^3H]- or [^125I] ligand) to label a particular receptor. […] Following incubation, labelled membranes were harvested and rinsed with excessive cold buffer to remove non-bound radioactivity by rapid filtration under suction. Membrane bound radioactivity was counted in a scintillation counter and results were expressed in counts per minute (cpm). The compounds were dissolved in DMSO and tested at 10 concentrations ranging from 10^−10 to 10^−5 M. The ability of the compounds according to the invention to displace [^3H]-Substance P from cloned human h-NK1 receptors expressed in CHO cells, to displace [^3H]-SR-48968 from cloned human h-NK2 receptors expressed in Sf9 cells, and to displace [^3H]-SR-142801 from cloned human h-NK3 receptors expressed in CHO cells was evaluated.

h-NK3 receptor = target: T2, h-NK3 receptor (Homo sapiens, UniProt P29371); experiment: Binding experiment for h-NK3 receptor: displacement of [3H]-SR-142801, CHO cells; conditions: cloned human h-NK3 receptors expressed in CHO cells, read-out: h-NK3 pIC50 (converted)
T2 construct: expressed in transfected cells; host or cells: CHO cells
T2 sequence (P29371 1-465): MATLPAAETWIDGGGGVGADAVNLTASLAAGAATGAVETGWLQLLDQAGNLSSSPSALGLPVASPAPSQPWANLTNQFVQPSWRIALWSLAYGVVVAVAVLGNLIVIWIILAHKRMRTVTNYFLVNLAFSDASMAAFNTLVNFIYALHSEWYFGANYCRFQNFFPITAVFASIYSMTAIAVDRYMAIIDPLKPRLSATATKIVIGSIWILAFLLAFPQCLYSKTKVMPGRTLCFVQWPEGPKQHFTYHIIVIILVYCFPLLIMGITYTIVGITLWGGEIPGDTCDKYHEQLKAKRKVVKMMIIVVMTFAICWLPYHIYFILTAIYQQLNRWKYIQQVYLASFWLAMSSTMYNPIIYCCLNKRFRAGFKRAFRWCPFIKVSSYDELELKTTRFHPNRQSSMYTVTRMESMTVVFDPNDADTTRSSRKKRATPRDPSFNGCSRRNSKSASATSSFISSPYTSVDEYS
Experimental: as §1

h-NK1 receptor = target: T3, h-NK1 receptor (Homo sapiens, UniProt P25103); experiment: Binding experiment for h-NK1 receptor: displacement of [3H]-Substance P, CHO cells; conditions: cloned human h-NK1 receptors expressed in CHO cells, read-out: h-NK1 pIC50 (converted)
T3 construct: expressed in transfected cells; host or cells: CHO cells
Experimental: as §1

T3 sequence (P25103 whole entry): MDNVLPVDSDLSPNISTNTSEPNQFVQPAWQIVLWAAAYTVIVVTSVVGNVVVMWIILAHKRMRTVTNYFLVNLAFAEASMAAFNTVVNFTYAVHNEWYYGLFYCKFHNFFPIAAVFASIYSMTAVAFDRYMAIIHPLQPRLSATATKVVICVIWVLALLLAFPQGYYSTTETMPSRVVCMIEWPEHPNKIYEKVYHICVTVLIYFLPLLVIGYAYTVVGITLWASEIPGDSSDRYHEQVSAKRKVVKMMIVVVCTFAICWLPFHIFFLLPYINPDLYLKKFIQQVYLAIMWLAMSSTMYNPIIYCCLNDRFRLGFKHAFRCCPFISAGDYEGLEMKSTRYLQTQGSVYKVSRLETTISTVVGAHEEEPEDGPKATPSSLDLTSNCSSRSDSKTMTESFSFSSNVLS

| Structure (SMILES) | melting point | IC50 (h-NK2 receptor) | IC50 (h-NK3 receptor) | IC50 (h-NK1 receptor) |
| --- | --- | --- | --- | --- |
| O=C(c1cc(C(F)(F)F)cc(C(F)(F)F)c1)N1CCC(N2CCN(C3CCN(Cc4nc5ccccc5[nH]4)CC3)CC2)CC1Cc1ccccc1 (stereo not shown) [Compound 7] | 135 °C |  |  |  |
| COc1cc(N)c(Cl)cc1C(=O)N1CCC(N2CCN([C@H]3CCN(C(=O)c4cc(C(F)(F)F)cc(C(F)(F)F)c4)[C@H](Cc4ccccc4)C3)CC2)CC1 [Compound 64] |  | 398 nM | 398 nM | 7.94 nM |
